Results taken from patent US11612165B2, “Pesticide composition for controlling Spodoptera frugiperda” (priority 2020, dated 2023).
Read-outs that look alike come from different tables or passages of the source.

System: Spodoptera frugiperda
Experiment: Indoor toxicity test, immersion method, larvae mortality after 24 h
Type: in vivo
Details: single or mixed in different ratios, 3-day-old larvae, 25° C., read-out: LC50 (95% confidence limit)
Description: Pesticide for test: TC of tea saponin; TC of chlorantraniliprole; TC of tolfenpyrad;
Pest for test: Spodoptera frugiperda (2-3-day-old);
Test method: immersion method: calculating the dosage of the TC according to the active ingredients, preparing the TC into a mother solution, adding clear water to dilute the mother solution to 5-7 gradient concentrations, taking clear water treatment as a control, and setting 3 repetitions for each treatment; selecting 20 larvae with basically the same growth state, putting the larvae into an experiment barrel containing pesticide liquid, covering a gauze (to prevent escape), placing in a 25° C. incubator, investing the death situations after 24 h, recording the number of the dead larvae, and processing data by DPS statistical software.

SMILES	LC50 (tolfenpyrad (A) and tea saponin (B)) [µg/mL]	LC50 (chlorantraniliprole (A) and tea saponin (B)) [µg/mL]
CCc1nn(C)c(C(=O)NCc2ccc(Oc3ccc(C)cc3)cc2)c1Cl [Tolfenpyrad (A), Tolfenpyrad]	0.563	–
CNC(=O)c1cc(Cl)cc(C)c1NC(=O)c1cc(Br)nn1-c1ncccc1Cl [Chlorantraniliprole (A), Chlorantraniliprole]	–	0.283
